{"source": "patent US20130190407A1", "about": "“CALCIUM RECEPTOR-ACTIVE MOLECULES” (NPS Pharmaceuticals, Inc., priority 1991, published 2013)", "type_in_all_cases": "cell-based", "key": {"[1]": {"biological_target": "T1, osteoclast calcium receptor (Rattus norvegicus, UniProt P48442)", "T1 sequence (P48442 20-1079)": "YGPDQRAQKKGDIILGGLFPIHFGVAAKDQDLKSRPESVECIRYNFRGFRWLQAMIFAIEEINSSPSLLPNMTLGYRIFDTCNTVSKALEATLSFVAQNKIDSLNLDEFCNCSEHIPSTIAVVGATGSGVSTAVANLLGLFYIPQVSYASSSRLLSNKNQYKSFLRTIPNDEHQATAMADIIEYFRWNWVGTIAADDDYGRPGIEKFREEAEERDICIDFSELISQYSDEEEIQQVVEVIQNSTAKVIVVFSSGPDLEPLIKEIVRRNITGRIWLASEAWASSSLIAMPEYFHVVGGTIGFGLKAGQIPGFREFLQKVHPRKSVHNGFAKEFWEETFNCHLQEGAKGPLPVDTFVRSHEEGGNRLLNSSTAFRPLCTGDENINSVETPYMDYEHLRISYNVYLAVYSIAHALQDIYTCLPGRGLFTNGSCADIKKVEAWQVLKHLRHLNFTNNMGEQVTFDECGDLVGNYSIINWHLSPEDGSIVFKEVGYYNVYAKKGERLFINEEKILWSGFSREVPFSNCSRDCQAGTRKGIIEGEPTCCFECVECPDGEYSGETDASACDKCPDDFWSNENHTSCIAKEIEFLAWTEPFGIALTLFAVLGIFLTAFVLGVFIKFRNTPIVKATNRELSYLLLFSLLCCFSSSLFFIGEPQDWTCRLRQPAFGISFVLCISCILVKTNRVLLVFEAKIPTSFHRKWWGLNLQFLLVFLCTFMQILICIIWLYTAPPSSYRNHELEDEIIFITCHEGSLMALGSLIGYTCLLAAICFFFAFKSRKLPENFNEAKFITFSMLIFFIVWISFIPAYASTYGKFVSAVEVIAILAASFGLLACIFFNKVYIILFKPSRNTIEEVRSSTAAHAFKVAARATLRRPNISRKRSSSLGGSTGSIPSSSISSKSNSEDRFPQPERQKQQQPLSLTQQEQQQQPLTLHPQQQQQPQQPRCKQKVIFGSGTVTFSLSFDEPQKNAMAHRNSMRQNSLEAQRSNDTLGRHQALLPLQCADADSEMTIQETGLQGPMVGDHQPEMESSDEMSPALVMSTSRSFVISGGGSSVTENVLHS", "experiment": "[Ca2+]i (indo-1) in single rat osteoclasts"}, "Bovine parathyroid cells": {"system": "Bovine parathyroid cells", "conditions": "10 μM isoproterenol 15 min; no pertussis toxin; 2.0 mM Ca2+, 200 μM spermine, 30 μM neomycin B, 2 μg/ml protamine; mean ± SEM", "protocol": "This section describes measuring cyclic AMP levels. Cells were incubated as above for PTH secretion studies and at the end of the incubation, a 0.15-ml sample was taken and transferred to 0.85 ml of hot (70° C.) water and heated at this temperature for 5-10 minutes. The tubes were subsequently frozen and thawed several times and the cellular debris sedimented by centrifugation. Portions of the supernatant were acetylated and cyclic AMP concentrations determined by radioimmunoassay.\nBovine parathyroid cells were cultured for 16 hours with or without 100 ng/ml pertussis toxin. […] Each value is the mean±SEM of three experiments."}, "[2]": {"biological_target": "T2, parathyroid cell calcium receptor (Bos taurus, UniProt P35384)", "T2 sequence (P35384 20-1085)": "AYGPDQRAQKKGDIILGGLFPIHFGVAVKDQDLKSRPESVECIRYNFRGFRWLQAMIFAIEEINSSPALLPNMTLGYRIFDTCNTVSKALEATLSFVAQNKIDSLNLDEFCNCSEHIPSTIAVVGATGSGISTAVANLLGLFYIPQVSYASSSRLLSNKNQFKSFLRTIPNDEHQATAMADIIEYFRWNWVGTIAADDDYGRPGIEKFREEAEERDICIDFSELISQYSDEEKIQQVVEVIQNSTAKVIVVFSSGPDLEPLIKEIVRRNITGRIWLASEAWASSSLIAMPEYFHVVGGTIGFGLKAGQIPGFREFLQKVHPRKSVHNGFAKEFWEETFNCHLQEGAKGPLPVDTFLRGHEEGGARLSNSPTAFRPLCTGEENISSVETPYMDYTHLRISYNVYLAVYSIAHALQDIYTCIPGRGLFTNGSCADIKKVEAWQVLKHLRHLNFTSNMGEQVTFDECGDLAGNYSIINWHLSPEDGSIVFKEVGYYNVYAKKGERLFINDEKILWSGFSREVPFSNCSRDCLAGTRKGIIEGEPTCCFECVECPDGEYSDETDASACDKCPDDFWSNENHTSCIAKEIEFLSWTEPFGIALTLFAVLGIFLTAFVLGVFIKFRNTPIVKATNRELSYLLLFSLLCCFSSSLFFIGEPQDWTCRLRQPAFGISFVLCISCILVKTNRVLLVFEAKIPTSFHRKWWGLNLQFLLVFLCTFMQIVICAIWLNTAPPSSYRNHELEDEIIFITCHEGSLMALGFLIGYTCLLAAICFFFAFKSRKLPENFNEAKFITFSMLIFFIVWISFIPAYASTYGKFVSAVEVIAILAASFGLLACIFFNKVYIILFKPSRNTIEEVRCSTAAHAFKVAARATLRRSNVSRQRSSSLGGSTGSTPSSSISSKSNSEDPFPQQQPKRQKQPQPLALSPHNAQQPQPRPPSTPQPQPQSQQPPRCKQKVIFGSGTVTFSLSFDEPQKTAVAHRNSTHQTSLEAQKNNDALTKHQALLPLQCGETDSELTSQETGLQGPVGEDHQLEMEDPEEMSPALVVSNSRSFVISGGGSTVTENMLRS", "experiment": "Cl- current in Xenopus oocytes injected with bovine parathyroid cell poly(A)+-mRNA", "design": "Whole pieces of gland were used to prepare mRNA that directs the expression of the calcium receptor in Xenopus oocytes; expressed in transfected cells; host or cells: Xenopus laevis oocytes injected with total poly(A)+ mRNA from bovine parathyroid glands", "conditions": "100 μM", "protocol": "(§1) Following incubation, an oocyte was placed into a 100-μl plastic chamber and superfused with MBS at a flow rate of 0.5 ml/min using a peristaltic pump. Test molecules or inorganic polycations were added by rapidly moving the tubing into different buffers. Recording and current-passing electrodes were constructed from thin-wall capillary tubing pulled to a resistance of 1-3 Mohms and filled with 3 M KCl. […] Currents were recorded directly onto a strip chart recorder.\nDissociated bovine parathyroid cells were used to further explore the mechanism of action of NPS R-467 at the receptor level. […] It does, however, elicit responses in parathyroid cells and in oocytes when a small amount of extracellular Ca^2+ is present."}, "[3]": {"biological_target": "T2, parathyroid cell calcium receptor", "experiment": "Mobilization of intracellular Ca2+ ([Ca2+]i, fura-2) in bovine parathyroid cells", "design": "Parathyroid glands were obtained from freshly slaughtered calves (12-15 weeks old); endogenous in cells; host or cells: dissociated primary bovine (calf) parathyroid cells", "conditions": "Table 6; bovine parathyroid cells; read-out: EC50 PARATHYROID", "description": "This section describes procedures used to obtain and treat parathyroid cells from calves and humans. […] Human parathyroid glands, were obtained from patients undergoing surgical removal of parathyroid tissue for primary or uremic hyperparathyroidism (uremic HPT), and were treated similarly to bovine tissue.\nGlands were trimmed of excess fat and connective tissue and then minced with fine scissors into cubes approximately 2-3 mm on a side. Dissociated parathyroid cells were prepared by collagenase digestion and then purified by centrifugation in Percoll buffer. The resultant parathyroid cell preparation was essentially devoid of red blood cells, adipocytes, and capillary tissue as assessed by phase contrast microscopy and Sudan black B staining. Dissociated and purified parathyroid cells were present as small clusters containing 5 to 20 cells.\nThe cells were then pelleted, resuspended in the same buffer, but lacking the ester, and incubated a further 15 minutes at 37° C. The cells were subsequently washed twice with PCB containing 0.5 mM CaCl2 and 0.5% BSA and maintained at room temperature (about 20° C.) Immediately before use, the cells were diluted five-fold with prewarmed 0.5 mM CaCl2-PCB to obtain a final BSA concentration of 0.1%. The concentration of cells in the cuvette used for fluorescence recording was 1−2×10^6/ml.\nThe fluorescence of indicator-loaded cells was measured at 37° C. in a spectrofluorimeter (Biomedical Instrumentation Group, University of Pennsylvania, Philadelphia, Pa.) equipped with a thermostated cuvette holder and magnetic stirrer using excitation and emission wavelengths of 340 and 510 nm, respectively. […] Leakage of dye is dependent on temperature and most occurs within the first 2 minutes after warming the cells in the cuvette. Dye leakage increases only very slowly thereafter. To correct the calibration for dye leakage, cells were placed in the cuvette and stirred at 37° C. for 2-3 minutes. The cell suspension was then removed, the cells pelleted, and the supernatant returned to a clean cuvette. […] This estimate was subtracted from the apparent Fmin."}, "[4]": {"biological_target": "T3, bovine parathyroid cell calcium receptor (Bos taurus, UniProt P35384)", "T3 construct": "isolation of a single clone (BoPCaR 1) with a cDNA insert of 5.3 kb; expressed in transfected cells", "T3 sequence (P35384 20-1085)": "T2 sequence (P35384 20-1085)", "experiment": "Cl- current in Xenopus oocytes injected with BoPCaR 1", "protocol": "Several pharmacological and biochemical criteria were used to identify this clone as encoding a bona fide bovine parathyroid Ca^2+ receptor. […] These responses increased markedly over a period of one to four days after injection of the eggs with cRNA prepared from the BoPCaR 1 cDNA. Furthermore, the ranges of the concentrations of the two cations eliciting this response were very similar to those shown previously to act on bovine parathyroid cells in vitro.\nXenopus oocytes were injected with BoPCaR 1, the 5.3 Kb cDNA encoding a bovine parathyroid cell calcium receptor as described in Example 25. After two to three days, Cl^− currents were examined in the oocytes using a two-electrode voltage clamp.\nXenopus oocytes were injected with BoPCaR 1 as described in Example 25. After two to three days, Cl^− currents were examined in the oocytes using two electrode voltage clamp."}, "calcium receptor": {"biological_target": "T4, calcium receptor (Homo sapiens, UniProt P41180)", "T4 construct": "poly(A)^+-enriched mRNA from human parathyroid tissue (hyperplastic glands from a case of secondary HPT); expressed in transfected cells; host or cells: Xenopus laevis oocytes injected with poly(A)+ mRNA from hyperplastic human parathyroid glands", "T4 sequence (P41180 20-1078)": "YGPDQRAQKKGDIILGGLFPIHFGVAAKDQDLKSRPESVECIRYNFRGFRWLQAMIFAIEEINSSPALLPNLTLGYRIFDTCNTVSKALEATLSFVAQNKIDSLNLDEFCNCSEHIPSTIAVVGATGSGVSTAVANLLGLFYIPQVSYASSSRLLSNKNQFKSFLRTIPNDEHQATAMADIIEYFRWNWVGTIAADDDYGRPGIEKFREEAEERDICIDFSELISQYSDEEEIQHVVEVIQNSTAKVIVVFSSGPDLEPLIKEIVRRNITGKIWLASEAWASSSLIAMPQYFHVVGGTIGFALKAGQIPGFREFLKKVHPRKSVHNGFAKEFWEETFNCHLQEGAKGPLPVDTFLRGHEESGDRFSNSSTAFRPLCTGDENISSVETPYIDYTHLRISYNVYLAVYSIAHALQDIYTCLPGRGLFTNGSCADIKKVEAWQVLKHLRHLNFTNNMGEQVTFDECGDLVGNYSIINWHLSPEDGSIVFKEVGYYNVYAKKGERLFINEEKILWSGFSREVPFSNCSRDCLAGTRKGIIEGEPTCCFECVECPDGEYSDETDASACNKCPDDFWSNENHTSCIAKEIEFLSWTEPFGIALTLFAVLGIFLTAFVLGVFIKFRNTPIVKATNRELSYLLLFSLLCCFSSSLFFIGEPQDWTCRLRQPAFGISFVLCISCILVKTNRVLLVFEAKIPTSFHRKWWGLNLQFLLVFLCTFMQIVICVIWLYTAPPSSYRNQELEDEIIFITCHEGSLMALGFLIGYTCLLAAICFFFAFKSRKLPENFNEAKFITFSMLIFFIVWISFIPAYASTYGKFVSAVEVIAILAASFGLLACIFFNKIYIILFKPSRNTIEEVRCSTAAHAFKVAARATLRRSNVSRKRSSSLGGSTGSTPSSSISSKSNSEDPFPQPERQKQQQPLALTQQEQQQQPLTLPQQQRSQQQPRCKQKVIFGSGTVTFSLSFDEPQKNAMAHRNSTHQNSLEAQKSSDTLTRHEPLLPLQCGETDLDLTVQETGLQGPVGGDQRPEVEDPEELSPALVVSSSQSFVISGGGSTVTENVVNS", "experiment": "Cl- current in Xenopus oocytes injected with human parathyroid cell mRNA", "conditions": "hexacyclen 135 μM, neomycin 100 μM, NPS 382 5 mM", "protocol": "Oocytes were injected with poly(A)^+-enriched mRNA from human parathyroid tissue (hyperplastic glands from a case of secondary HPT).\nas §1\nUsing this screen allows one to test for an action directly on the calcium receptor. Oocytes expressing the calcium receptor also responded to several molecules active on intact parathyroid cells when screened as follows. […] This offers rather compelling evidence showing that these molecules act on the calcium receptor or on some other protein intimately associated with its function."}}}
{"smiles": "NCCCCNCCCN", "note": "[Spermidine, spermidine]", "values": [{"measurement": "compounds that caused any large increase in [Ca2+]i", "setting": "[1]", "value": "none"}]}
{"smiles": "NCCCNCCCCNCCCN", "note": "[Spermine, spermine]", "values": [{"measurement": "cyclic AMP (% of control), control", "setting": "Bovine parathyroid cells", "value": "23 ± 5 % of control"}]}
{"smiles": "CC(NCCC(c1ccccc1)c1ccccc1)c1ccccc1", "note": "(racemic) [Fendiline, fendiline]", "values": [{"measurement": "Cl- current", "setting": "[2]", "value": "elicits oscillatory increases in Cl^− current"}, {"measurement": "EC50", "setting": "[3]", "value": 15, "unit": "µM"}]}
{"smiles": "COc1cccc([C@H](C)NCCCc2ccccc2Cl)c1", "note": "[NPS S-568]", "values": [{"measurement": "concentration eliciting Cl- current responses", "setting": "[4]", "value": 100, "unit": "µM"}]}
{"smiles": "NCCCN(CCCN)CCCNCCCCNCCCN(CCCN)CCCN", "note": "[NPS 382, N^1, N^1, N^5, N^14, N^14-tetrakis-(3-aminopropyl)spermine]", "values": [{"measurement": "mobilization of intracellular Ca2+ in oocytes", "setting": "calcium receptor", "value": "effective"}]}
{"smiles": "NCCCNCCCCNCCCNCCCN(O)CCCNC(=O)Cc1c[nH]c2ccccc12", "note": "[NPS 017, Agatoxin 489]", "values": [{"measurement": "Cl- current", "setting": "[4]; 1 mM extracellular Ca2+", "value": "oscillatory increases in the Cl^− current"}, {"measurement": "EC50 OSTEOCLAST", "setting": "[1]; Table 6, rat osteoclasts, indo-1", "value": "inactive"}]}
